Measurements reported in PubChem BioAssay AID1963975 (Molecular Pharmacology Branch, DTP, NCI, 2024).

Test system: 624824-186-R-J2-PDC multicell spheroids, viability
Assay: Anticancer human tumor 624824-186-R-J2-PDC patient-derived colon adenocarcinoma cell line growth inhibition [PI3K]
Conditions: for IC50: curve of first compound; for viability, T/C: stronger effect = lower value; active = viability on the fitted dose curve at most 10% of control; inactive = the rest
How it was run: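 High-throughput combination screen: PI3K inhibitors crossed with targeted small molecules on complex spheroids of tumor cells, HUVEC and MSCs at 37 degrees C, 5% CO2. Top concentration was at or near clinical Cmax (otherwise 10 microM), with half-log decrements.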

[1] = second compound 0.0316 µM, first compound 0.0316 µM
[2] = second compound 0.0316 µM, first compound 0.1 µM
[3] = second compound 0.1 µM, first compound 0.0316 µM
[4] = second compound 0.1 µM, first compound 0.1 µM
[5] = second compound 0.316 µM, first compound 0.0316 µM
[6] = second compound 0.316 µM, first compound 0.1 µM
[7] = second compound 1 µM, first compound 0.0316 µM
[8] = second compound 1 µM, first compound 0.1 µM
[9] = second compound 3.16 µM, first compound 0.0316 µM
[10] = second compound 3.16 µM, first compound 0.1 µM
[11] = second compound 10 µM, first compound 0.0316 µM
[12] = second compound 10 µM, first compound 0.1 µM
[13] = second compound 0.0316 µM, first compound 0.316 µM
[14] = second compound 0.0316 µM, first compound 1 µM
[15] = second compound 0.0316 µM, first compound 3.16 µM
[16] = second compound 0.0316 µM, first compound 10 µM
[17] = second compound 0.1 µM, first compound 0.316 µM
[18] = second compound 0.1 µM, first compound 1 µM
[19] = second compound 0.1 µM, first compound 3.16 µM
[20] = second compound 0.1 µM, first compound 10 µM
[21] = second compound 0.316 µM, first compound 0.316 µM
[22] = second compound 0.316 µM, first compound 1 µM
[23] = second compound 0.316 µM, first compound 3.16 µM
[24] = second compound 0.316 µM, first compound 10 µM
[25] = second compound 1 µM, first compound 0.316 µM
[26] = second compound 1 µM, first compound 1 µM
[27] = second compound 1 µM, first compound 3.16 µM
[28] = second compound 1 µM, first compound 10 µM
[29] = second compound 3.16 µM, first compound 0.316 µM
[30] = second compound 3.16 µM, first compound 1 µM
[31] = second compound 3.16 µM, first compound 3.16 µM
[32] = second compound 3.16 µM, first compound 10 µM
[33] = second compound 10 µM, first compound 0.316 µM
[34] = second compound 10 µM, first compound 1 µM
[35] = second compound 10 µM, first compound 3.16 µM
[36] = second compound 10 µM, first compound 10 µM
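Note: spheroids exposed to agents for 7 days before viability read.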
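Throughout, for viability, T/C: 100% = DMSO vehicle treated spheroids.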

CC(C)n1nc(-c2ccc3oc(N)nc3c2)c2c(N)ncnc21 + CC(Nc1ncnc2nc[nH]c12)c1cc2cccc(Cl)c2c(=O)n1-c1ccccc1
> 0.1 µM: IC50 (second compound 0.0316 µM) | IC50 (second compound 0.1 µM) | IC50 (second compound 0.316 µM) | IC50 (second compound 1 µM) | IC50 (second compound 3.16 µM) | IC50 (second compound 10 µM)
inactive: viability, T/C (second compound 0.0316 µM, first compound 0.000316 µM) 108% | viability, T/C (second compound 0.0316 µM, first compound 0.001 µM) 113% | viability, T/C (second compound 0.0316 µM, first compound 0.00316 µM) 83% | viability, T/C (second compound 0.0316 µM, first compound 0.01 µM) 76.7% | viability, T/C [1] 75.7% | viability, T/C [2] 77.9% | viability, T/C (second compound 0.1 µM, first compound 0.000316 µM) 94.3% | viability, T/C (second compound 0.1 µM, first compound 0.001 µM) 81.9% | viability, T/C (second compound 0.1 µM, first compound 0.00316 µM) 105% | viability, T/C (second compound 0.1 µM, first compound 0.01 µM) 85.8% | viability, T/C [3] 81.5% | viability, T/C [4] 75.2% | viability, T/C (second compound 0.316 µM, first compound 0.000316 µM) 87.5% | viability, T/C (second compound 0.316 µM, first compound 0.001 µM) 77.3% | viability, T/C (second compound 0.316 µM, first compound 0.00316 µM) 73.6% | viability, T/C (second compound 0.316 µM, first compound 0.01 µM) 83.3% | viability, T/C [5] 86.8% | viability, T/C [6] 75.8% | viability, T/C (second compound 1 µM, first compound 0.000316 µM) 93.2% | viability, T/C (second compound 1 µM, first compound 0.001 µM) 99% | viability, T/C (second compound 1 µM, first compound 0.00316 µM) 91.6% | viability, T/C (second compound 1 µM, first compound 0.01 µM) 79.2% | viability, T/C [7] 84.8% | viability, T/C [8] 90.6% | viability, T/C (second compound 3.16 µM, first compound 0.000316 µM) 101% | viability, T/C (second compound 3.16 µM, first compound 0.001 µM) 90.5% | viability, T/C (second compound 3.16 µM, first compound 0.00316 µM) 82.3% | viability, T/C (second compound 3.16 µM, first compound 0.01 µM) 90.5% | viability, T/C [9] 87.7% | viability, T/C [10] 78.2% | viability, T/C (second compound 10 µM, first compound 0.000316 µM) 109% | viability, T/C (second compound 10 µM, first compound 0.001 µM) 96.7% | viability, T/C (second compound 10 µM, first compound 0.00316 µM) 82.7% | viability, T/C (second compound 10 µM, first compound 0.01 µM) 95.5% | viability, T/C [11] 81.2% | viability, T/C [12] 78.6%

CC1(C)CCC(Nc2ncc(C(F)(F)F)c(-c3c[nH]c4c(P(C)(C)=O)c(C#N)ccc34)n2)CN1 (stereo unspecified) + CC(Nc1ncnc2nc[nH]c12)c1cc2cccc(Cl)c2c(=O)n1-c1ccccc1
3.55 µM: IC50 (second compound 0.0316 µM)
3.73 µM: IC50 (second compound 1 µM)
4.27 µM: IC50 (second compound 0.1 µM)
active: viability, T/C [16] 6.48% | viability, T/C [20] 6.11% | viability, T/C [24] 5.05% | viability, T/C [28] 4.82% | viability, T/C [32] 4.88% | viability, T/C [36] 3.89%
2.99 µM: IC50 (second compound 3.16 µM)
3.13 µM: IC50 (second compound 0.316 µM)
2.97 µM: IC50 (second compound 10 µM)
inactive: viability, T/C [1] 81.1% | viability, T/C [2] 93.2% | viability, T/C [13] 102% | viability, T/C [14] 108% | viability, T/C [15] 54.9% | viability, T/C [3] 94.1% | viability, T/C [4] 92.3% | viability, T/C [17] 96.3% | viability, T/C [18] 104% | viability, T/C [19] 65.7% | viability, T/C [5] 91% | viability, T/C [6] 76.4% | viability, T/C [21] 90.8% | viability, T/C [22] 108% | viability, T/C [23] 49.7% | viability, T/C [7] 108% | viability, T/C [8] 94.1% | viability, T/C [25] 100% | viability, T/C [26] 98.7% | viability, T/C [27] 57.6% | viability, T/C [9] 91.2% | viability, T/C [10] 94.7% | viability, T/C [29] 100% | viability, T/C [30] 93.3% | viability, T/C [31] 47.8% | viability, T/C [11] 100% | viability, T/C [12] 84.4% | viability, T/C [33] 92.3% | viability, T/C [34] 81.3% | viability, T/C [35] 48.1%

C[C@@H](NC(=O)c1ncnc(N)c1Cl)c1ncc(C(=O)Nc2cc(C(F)(F)F)c(Cl)cn2)s1 + Cc1nc(NC(=O)N2CCCC2C(N)=O)sc1-c1ccnc(C(C)(C)C(F)(F)F)c1
> 10 µM: IC50 (second compound 0.0316 µM) | IC50 (second compound 0.1 µM) | IC50 (second compound 0.316 µM) | IC50 (second compound 1 µM) | IC50 (second compound 3.16 µM)
inactive: viability, T/C [1] 103% | viability, T/C [2] 103% | viability, T/C [13] 91.8% | viability, T/C [14] 84.2% | viability, T/C [15] 73.2% | viability, T/C [16] 82.4% | viability, T/C [3] 80.8% | viability, T/C [4] 84.2% | viability, T/C [17] 85.7% | viability, T/C [18] 76.1% | viability, T/C [19] 84.2% | viability, T/C [20] 85.5% | viability, T/C [5] 106% | viability, T/C [6] 99.8% | viability, T/C [21] 87.7% | viability, T/C [22] 63.5% | viability, T/C [23] 76.2% | viability, T/C [24] 81.1% | viability, T/C [7] 101% | viability, T/C [8] 96.1% | viability, T/C [25] 102% | viability, T/C [26] 70.7% | viability, T/C [27] 68.3% | viability, T/C [28] 71.5% | viability, T/C [9] 87.4% | viability, T/C [10] 92.6% | viability, T/C [29] 88.8% | viability, T/C [30] 70.7% | viability, T/C [31] 58.1% | viability, T/C [32] 49.7% | viability, T/C [11] 78% | viability, T/C [12] 80.4% | viability, T/C [33] 63.4% | viability, T/C [34] 54.7% | viability, T/C [35] 38% | viability, T/C [36] 40.1%
1.17 µM: IC50 (second compound 10 µM)
